Data reported in publication PMC12518639, “Apomorphine is a novel necroptosis inhibitor targeting mixed lineage kinase domain-like protein oligomerization” (Cell Death Discovery, 2025).
Counter-ions that a name gives are not always drawn. Like-named read-outs stand apart in the source and are kept apart here. Where a SMILES comes first, the peptide text is derived from it. The star is where a group is joined. Cbz = O=C(OCc1ccccc1)*

System: THP-1-HMGB1-Lucia cells
Test: TBZ-induced necroptosis screening by HMGB1-luciferase release
Format: cell-based, human
Conditions: 8 h, read-out: % Inhibition (luciferase activity relative to TBZ-treated supernatant); for activity at 20 µM: Homo sapiens
Experimental: To identify potential inhibitors of the necroptosis pathway targeting MLKL or the process of p-MLKL pore formation on the membrane, we screened a library of 2150 compounds, including FDA-approved drugs and those in phase 1–3 clinical trials, using THP-1-HMGB1-Lucia™ cells expressing the HMGB1-luciferase fusion protein. The cells were treated with a necroptosis-inducing mixture containing TNF-α, BV6, and Z-VAD-FMK (TBZ) in addition to the compound library (Fig. 1A). The supernatants were harvested to measure luciferase activities for necroptosis. The luciferase activities of cell supernatants treated with TBZ alone were considered as the maximum release (100%) of HMGB1-luciferase. NEC-1, a known RIP1 inhibitor used in both humans and mice, was used as a positive control. […] Next, we performed a propidium iodide (PI) uptake assay to exclude cytotoxic compounds using THP-1 cells. Then, we selected candidate molecules that were arbitrarily less than 30% of those treated with TBZ. […] Next, the inhibition levels of p-MLKL were tested to select MLKL-targeting molecules (Figs. 1C and S1A). Compounds that reduced p-MLKL levels to less than 30% of TBZ-treated controls were considered as potential inhibitors of MLKL phosphorylation. Conversely, compounds that maintained p-MLKL levels above 70% were selected because they are presumed to prevent the formation of pores in the plasma membrane by interfering with oligomerization.
A clinical chemical library containing 2150 items (Korea Chemical Bank, South Korea), under phase 1–3 clinical trials, including FDA-approved drugs, was used to screen for necroptosis inhibitors. Each chemical was dissolved in DMSO and diluted to 20 μM in DPBS for treatment.
THP-1-HMGB1-Lucia^TM cells were pretreated with the pan-caspase inhibitor Z-VAD-FMK (50 μM, tlrl-vad, InvivoGen) and each chemical for 1 h, and followed by TNF-α (100 ng/mL, TNF0501, NKMAXBio, Seongnam, S. Korea) and Smac mimetic BV6 (10 μM, B1332-5, Biovision, Santa Clara, CA, USA), termed TBZ mixture, were added for necroptosis screening. The RIP1 inhibitor, NEC-1 (1846, Biovision), and MLKL inhibitor, NSA (432531-71-0, Sigma-Aldrich, St. Louis, MO, USA), were used as controls. The cell supernatant was harvested to measure HMGB1 levels using a luciferase assay kit (E1500, Promega, Madison, WI, USA) by a luminometer (Centro XS3 LB 960, Berthold Technologies, Bad Wildbad, Germany). The inhibition of necroptosis (%) was calculated as: (sample-treated data – medium-only data) × 100/(TBZ-treated data – medium-only data). APO [STK088477, (6aS)-6-methyl-5,6,6a,7-tetrahydro-4H-dibenzo[de,g]quinoline-10,11-diol, Vitas-M Laboratory, Hong Kong] was stored at −70 °C after aliquoting with DMSO. APO was used after dilution in DPBS. APO is susceptible to auto-oxidation in solution in the presence of light and air. DPBS containing 5 mM DTT was used for Re-APO. Ox-APO was prepared by incubating APO in DPBS at 25 °C for 24 h in the presence of light and air, followed by removal of any precipitate by filtration through 0.2 μm.

[1] = 20 μM compound with TBZ, TBZ alone = 100, DPBS = 0

For `CN1C(=O)C(Cc2c[nH]c3ccccc23)NC1=S` (stereo not shown) [Necrostatin-1], the activity [1] was 1.2%.
`O=c1ncn2nc(Sc3ccc(F)cc3F)ccc2c1-c1c(Cl)cccc1Cl` [S2, Neflamapimod] showed an activity at 20 µM [1] of 6.8%.
For `CCc1c(Cl)c(O)c(Cl)c(O)c1C(=O)O[C@H]1[C@H](O)[C@H](OC)[C@H](OC/C2=C\C=C\C[C@H](O)/C(C)=C/[C@H](CC)[C@@H](O[C@@H]3OC(C)(C)[C@@H](OC(=O)C(C)C)[C@H](O)[C@@H]3O)/C(C)=C/C(C)=C/C[C@@H]([C@@H](C)O)OC2=O)O[C@@H]1C` [S5, Fidaxomicin], the activity at 20 µM [1] was 5.9%.
In the case of `CC(C)C[C@@H](C=O)NC(=O)[C@H](CC(C)C)NC(=O)[C@H](CC(C)C)NC(=O)OCc1ccccc1` [S6, Z-Leu-Leu-Leu-al] (Cbz-Leu-Leu-Leu-aldehyde), the activity [1] is reported as 7.5%.
For `O=C(Nc1ccc(S(=O)(=O)C(F)(F)F)cc1)C1=CCN(c2ncccc2C(F)(F)F)CC1` [S7, A 784168], the activity [1] was 4.2%.
In the case of `COC(=O)[C@]12CCC(C)(C)C[C@H]1[C@H]1C(=O)C=C3[C@@]4(C)C=C(C#N)C(=O)C(C)(C)[C@@H]4CC[C@@]3(C)[C@]1(C)CC2` [S8, Bardoxolone methyl], the activity at 20 µM [1] is reported as 0%.
`CO[C@H]1C[C@@H]2CC[C@@H](C)[C@@](O)(O2)C(=O)C(=O)N2CCCC[C@H]2C(=O)O[C@H]([C@H](C)C[C@@H]2CC[C@@H](OC(=O)C(C)(CO)CO)[C@H](OC)C2)CC(=O)[C@H](C)/C=C(\C)[C@@H](O)[C@@H](OC)C(=O)[C@H](C)C[C@H](C)/C=C/C=C/C=C/1C` [S9, Temsirolimus] was tested, and the activity at 20 µM [1] was 19%.
Compound `COc1ccc(CNc2nc(N(CCO)CCO)nc3c2ncn3C(C)C)cc1` [S12, CVT-313] has an activity [1] of 4.7%.
`CC[C@H]1CN2CCc3cc(OC)c(OC)cc3[C@@H]2C[C@@H]1C[C@H]1NCCc2cc(OC)c(OC)cc21` [S13, Emetine dihydrochloride] was tested, and the activity at 20 µM [1] was 3.3%.
`COc1cc2nccc(Oc3ccc(NC(=O)C4(C(=O)Nc5ccc(F)cc5)CC4)cc3)c2cc1OC` [S14, Cabozantinib] was tested, and the activity at 20 µM [1] was 0.7%.
In the case of `Cc1ccc(F)c(NC(=O)Nc2ccc(-c3cccc4[nH]nc(N)c34)cc2)c1` [S20, Linifanib], the activity at 20 µM [1] is reported as 0%.
Work on `CC(=O)c1ccc(NC2=C(Cl)C(=O)c3ccccc3C2=O)cc1` [S21, NQ301] yielded an activity [1] of 4.1%.
With `CN1CCN(c2nc(C3=C(c4c[nH]c5ccccc45)C(=O)NC3=O)c3ccccc3n2)CC1` [S22, Sotrastaurin] the activity at 20 µM [1] was 4.7%.
For `CC(C)CN(C[C@@H](O)[C@H](Cc1ccccc1)NC(=O)O[C@H]1CO[C@H]2OCC[C@H]21)S(=O)(=O)c1ccc(N)cc1` [S23, Prezista], the activity at 20 µM was 11.2%.
`CC(=O)[C@@]1(O)CC[C@H]2[C@@H]3CCC4=CC(=O)CCC4=C3[C@@H](c3ccc(N(C)C)cc3)C[C@@]21C` [S24, Ulipristal] was tested, and the activity at 20 µM [1] was 14%.
Work on `C=C(CC)C(=O)c1ccc(OCC(=O)O)c(Cl)c1Cl` [S26, Ethacrynic acid] yielded an activity at 20 µM [1] of 3%.
With `CC(C)c1onc(-c2c(Cl)cccc2Cl)c1COc1ccc(/C=C/c2cccc(C(=O)O)c2)c(Cl)c1` [S27, GW4064] the activity [1] was 9.2%.
`COc1ccc(C(c2c(O)c3ccccc3oc2=O)c2c(O)c3ccccc3oc2=O)cc1CSc1ccccn1` [S29, STK529529] gave an activity [1] of 2.8%.
Work on `CCCS(=O)(=O)Nc1ccc(F)c(C(=O)c2c[nH]c3ncc(-c4ccc(Cl)cc4)cc23)c1F` [S30, Vemurafenib] yielded an activity at 20 µM [1] of 6.4%.
`Cc1ccccc1N(C)C(=O)c1ccc([S+]([O-])c2nccs2)c([N+](=O)[O-])c1` (stereo not shown) [S32, SB 268262] showed an activity [1] of 0%.
Work on `COc1ccc(C(c2c(O)c3ccccc3oc2=O)c2c(O)c3ccccc3oc2=O)cc1Cn1nc(C)c([N+](=O)[O-])c1C` [S33, STK528708] yielded an activity [1] of 0.1%.
`COc1ccc(CNC(=O)Nc2ncc([N+](=O)[O-])s2)cc1` [S36, AR-A014418] was tested, and the activity [1] was 10.8%.
`CC1(C)CNc2cc(NC(=O)c3cccnc3NCc3ccncc3)ccc21` [S37, Motesanib] was tested, and the activity at 20 µM [1] was 9.4%.
`O=C(NC1CCNCC1)c1[nH]ncc1NC(=O)c1c(Cl)cccc1Cl` [S39, AT7519] gave an activity at 20 µM [1] of 19.5%.
`O=C(O)Cc1cccc(OCCCN(Cc2cccc(C(F)(F)F)c2Cl)CC(c2ccccc2)c2ccccc2)c1` [S40, GW3965] showed an activity at 20 µM [1] of 11.6%.
